Data from doi:10.1101/382226v2 (biorxiv, 2019).

Assays:
NOX1 = NOX1 (Homo sapiens, UniProt Q9Y5S8); experiment: luminol/HRP chemiluminescence, intact transfected HEK293 cells; format: cell-based
NOX4 = molecular target: T1, NOX4 (Homo sapiens, UniProt Q9NPH5); experiment: Amplex Red/HRP H2O2 fluorescence, intact transfected HEK293 cells; format: cell-based
T1 sequence (Q9NPH5 1-578): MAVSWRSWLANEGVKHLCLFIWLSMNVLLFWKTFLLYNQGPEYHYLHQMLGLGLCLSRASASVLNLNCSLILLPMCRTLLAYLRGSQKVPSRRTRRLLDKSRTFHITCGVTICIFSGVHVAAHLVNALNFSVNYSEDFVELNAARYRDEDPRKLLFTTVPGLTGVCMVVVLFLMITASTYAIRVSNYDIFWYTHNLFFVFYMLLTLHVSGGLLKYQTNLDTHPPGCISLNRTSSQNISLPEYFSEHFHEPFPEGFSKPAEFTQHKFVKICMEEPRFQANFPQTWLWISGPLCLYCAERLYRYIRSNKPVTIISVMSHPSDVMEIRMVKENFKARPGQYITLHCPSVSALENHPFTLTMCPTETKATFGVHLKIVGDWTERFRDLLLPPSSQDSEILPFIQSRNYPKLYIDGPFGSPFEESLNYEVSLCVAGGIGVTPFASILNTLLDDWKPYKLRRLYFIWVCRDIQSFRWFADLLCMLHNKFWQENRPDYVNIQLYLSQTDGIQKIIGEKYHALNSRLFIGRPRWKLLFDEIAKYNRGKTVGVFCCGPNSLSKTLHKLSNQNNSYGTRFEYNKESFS
T1 sequence (P13498 2-195 partner): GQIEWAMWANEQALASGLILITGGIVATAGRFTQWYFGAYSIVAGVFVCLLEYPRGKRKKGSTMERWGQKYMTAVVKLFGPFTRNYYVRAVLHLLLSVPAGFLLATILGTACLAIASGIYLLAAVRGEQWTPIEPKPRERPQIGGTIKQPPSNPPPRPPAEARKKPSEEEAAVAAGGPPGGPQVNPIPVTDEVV

NOX1, sequence (Q9Y5S8 whole entry, one chain of several): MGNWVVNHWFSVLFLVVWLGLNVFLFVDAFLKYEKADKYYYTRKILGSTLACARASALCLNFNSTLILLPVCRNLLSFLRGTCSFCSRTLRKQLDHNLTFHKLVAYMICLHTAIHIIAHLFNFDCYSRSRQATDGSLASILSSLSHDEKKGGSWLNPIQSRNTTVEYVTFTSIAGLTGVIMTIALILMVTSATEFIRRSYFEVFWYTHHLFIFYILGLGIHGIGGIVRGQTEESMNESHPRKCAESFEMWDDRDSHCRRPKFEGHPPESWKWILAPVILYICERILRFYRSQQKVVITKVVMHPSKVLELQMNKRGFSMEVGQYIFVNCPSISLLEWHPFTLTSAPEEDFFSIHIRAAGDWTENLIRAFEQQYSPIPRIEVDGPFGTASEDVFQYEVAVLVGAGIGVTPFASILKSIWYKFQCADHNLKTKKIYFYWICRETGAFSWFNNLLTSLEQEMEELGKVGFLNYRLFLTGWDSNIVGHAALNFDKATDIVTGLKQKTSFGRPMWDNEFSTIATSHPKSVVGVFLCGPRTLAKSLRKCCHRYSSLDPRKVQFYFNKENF
NOX1, sequence (Q8NFA2 whole entry partner, one chain of several): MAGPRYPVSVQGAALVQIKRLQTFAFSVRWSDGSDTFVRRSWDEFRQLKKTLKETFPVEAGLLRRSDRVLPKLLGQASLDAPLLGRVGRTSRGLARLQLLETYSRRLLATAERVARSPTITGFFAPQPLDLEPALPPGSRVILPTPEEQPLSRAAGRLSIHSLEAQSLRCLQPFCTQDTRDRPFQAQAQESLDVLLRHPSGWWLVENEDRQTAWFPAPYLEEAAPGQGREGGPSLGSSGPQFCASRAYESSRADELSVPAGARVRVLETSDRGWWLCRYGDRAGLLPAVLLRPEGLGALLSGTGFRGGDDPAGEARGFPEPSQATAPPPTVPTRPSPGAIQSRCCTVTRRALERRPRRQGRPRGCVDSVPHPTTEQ
NOX1, sequence (Q86UR1 whole entry partner, one chain of several): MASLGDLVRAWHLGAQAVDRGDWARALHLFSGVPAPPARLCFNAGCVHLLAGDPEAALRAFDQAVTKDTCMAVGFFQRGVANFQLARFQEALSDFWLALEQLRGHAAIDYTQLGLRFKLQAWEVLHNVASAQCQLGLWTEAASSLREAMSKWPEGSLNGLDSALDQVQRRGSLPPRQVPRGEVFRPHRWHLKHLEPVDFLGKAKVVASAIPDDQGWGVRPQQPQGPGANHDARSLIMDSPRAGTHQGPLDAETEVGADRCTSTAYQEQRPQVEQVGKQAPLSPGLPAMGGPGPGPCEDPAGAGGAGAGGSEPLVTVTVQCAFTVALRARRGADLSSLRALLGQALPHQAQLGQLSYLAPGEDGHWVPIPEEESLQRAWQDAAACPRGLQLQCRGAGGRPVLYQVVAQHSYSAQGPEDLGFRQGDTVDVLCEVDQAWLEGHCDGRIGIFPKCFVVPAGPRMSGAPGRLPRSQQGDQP

IC50 (NOX1): 25.1 nM
IC50 (NOX4): 20.4 nM
Compound: c1ccc2c(c1)Nc1nc3ccccc3nc1N2 [ML090, 5,12-Dihydroquinoxalino(2,3-B)quinoxaline]
